Assay results taken from US20230271949A1, “GLP-1R MODULATING COMPOUNDS” (ASCLETIS BIOSCIENCE CO., LTD., priority 2022, published 2023).

target: GLP-1R (Homo sapiens, UniProt P43220); assay: GLP-1R agonist cAMP stimulation assay (HTRF cAMP); format: cell-based; conditions: HEK293 cell line expressing GLP-1 target; HTRF cAMP agonist mode, 30 min at RT
In short: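 GLP-1R-expressing cells were stimulated with 10-point, 3-fold compound dilutions for 30 min at RT; HTRF cAMP detection reagents were then added for 60 min and the 665/615 ratio read. Ratios were converted to cAMP via a standard curve and % activity scaled between DMSO and top-concentration GLP-1(7-37) reference wells.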

GLP-1R, sequence (P43220 24-463): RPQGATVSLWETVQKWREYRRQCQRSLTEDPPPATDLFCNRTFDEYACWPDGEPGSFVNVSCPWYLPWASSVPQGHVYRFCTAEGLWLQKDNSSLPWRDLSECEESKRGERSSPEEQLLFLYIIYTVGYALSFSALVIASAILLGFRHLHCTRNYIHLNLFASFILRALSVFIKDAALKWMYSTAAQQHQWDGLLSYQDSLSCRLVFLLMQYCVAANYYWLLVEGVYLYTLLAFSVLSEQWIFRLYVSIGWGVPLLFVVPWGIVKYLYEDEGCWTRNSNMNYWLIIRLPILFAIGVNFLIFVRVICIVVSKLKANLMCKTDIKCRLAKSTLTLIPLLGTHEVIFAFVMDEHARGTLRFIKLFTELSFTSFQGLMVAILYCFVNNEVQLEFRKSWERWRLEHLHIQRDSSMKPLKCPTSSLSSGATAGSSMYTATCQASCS

SMILES | EC50 [nM]
Cc1n[nH]c2c(C(F)F)cc(NC(=O)c3ccc4c(c3)nc(CN3CC=C(c5cccc(OCc6ccc(Cl)c7cc(Cl)oc67)n5)CC3)n4C[C@@H]3CCO3)cc12 [Compound 352] | 1.03
O=C(Nc1ccc2c(c1)nc(CN1CC=C(c3cccc(OCc4ccc(Cl)cc4F)n3)CC1)n2CC1CCO1)c1ccn2ncc(Cl)c2c1 (stereo not drawn) [Compound 206] | 5.91
Cc1nc2cccc(COc3cccc(C4CCN(Cc5nc6cc(C(=O)Nc7ccc8[nH]nc(C)c8c7)ccc6n5C[C@@H]5CCO5)CC4)n3)c2s1 [Compound 381] | 1.99
Cc1cc2c(C#N)ccc(COc3cccc(C4CCN(Cc5nc6cc(NC(=O)c7ccc8[nH]nc(C)c8c7)ccc6n5C[C@@H]5CCO5)CC4)n3)c2o1 [Compound 370] | 5.12
COC(=O)C1CC(N(C)C)CN1C(=O)[C@H](C)NC(=O)c1ccc2c(c1)nc(CN1CCC(c3cccc(OCc4ccc(Cl)cc4F)n3)CC1)n2C[C@@H]1CCO1 (stereo partly drawn) [Compound 74] | > 10000
Cc1cc(NC(=O)c2ccc3c(c2)nc(CN2CCC(c4cccc(OCc5ccc(Cl)cc5F)n4)CC2)n3C[C@@H]2CCO2)cc2nn[nH]c12 [Compound 194] | 0.33
O=C(NCC(=O)N1C[C@H](O)C[C@@H]1C(=O)O)c1ccc2c(c1)nc(CN1CCC(c3cccc(OCc4ccc(Cl)cc4F)n3)CC1)n2C[C@@H]1CCO1 [Compound 46] | 42.4
O=C(Nc1ccc2c(c1)nc(CN1CC=C(c3cccc(OCc4ccc(Cl)cc4F)n3)CC1)n2C[C@@H]1CCO1)c1ccc2[nH]nc(C3CC3)c2c1 [Compound 216] | 0.82
CC(C)c1n[nH]c2ccc(NC(=O)c3ccc4c(c3)nc(CN3CCC(c5cccc(OCc6ccc(Cl)cc6F)n5)CC3)n4C[C@@H]3CCO3)cc12 [Compound 83] | 3.76
O=C(Nc1cc2[nH]ccc2s1)c1ccc2c(c1)nc(CN1CC=C(c3cccc(OCc4ccc(Cl)cc4F)n3)CC1)n2C[C@@H]1CCO1 [Compound 402] | 73.2
Cc1cc(NC(=O)c2ccc3c(c2)nc(CN2CCC(c4cccc(OCc5ccc(Cl)cc5F)n4)CC2)n3C[C@@H]2CCO2)cc2c(C(F)F)n[nH]c12 [Compound 116] | 0.92
O=C(Nc1ccc2c(c1)nc(CN1CC=C(c3cccc(OCc4ccc(Cl)cn4)n3)CC1)n2C[C@@H]1CCO1)c1cc(C(F)(F)F)c2c(c1)C1(CC1)C(=O)N2 [Compound 211] | 1.02
Cc1cc(C(=O)Nc2ccc3c(c2)nc(Cc2c(F)cc(-c4cccc5c4OC(C)(c4ccc(Cl)cc4F)O5)cc2F)n3C[C@@H]2CCO2)cc2c1NC(=O)C21CC1 (stereo partly drawn) [Compound 319] | 0.43
Cc1cc(C(=O)Nc2ccc3c(c2)nc(CN2CC=C(c4cccc(OCc5ccc(Cl)cc5F)n4)CC2)n3C[C@@H]2CCO2)cc2c(C(F)F)n[nH]c12 [Compound 217] | 0.79
Cc1n[nH]c2cnc(NC(=O)c3ccc4c(c3)nc(CN3CC=C(c5cccc(OCc6ccc(Cl)cc6F)n5)CC3)n4C[C@@H]3CCO3)cc12 [Compound 192] | 9.87
Cc1n[nH]c2c(C(F)F)cc(C(=O)Nc3ccc4c(c3)nc(CN3CC=C(c5cccc(OCc6ccc(Cl)cc6F)n5)CC3)n4C[C@@H]3CCO3)cc12 [Compound 220] | 0.44
Cc1n[nH]c2c(C(F)(F)F)cc(NC(=O)c3ccc4c(c3)nc(CN3CC=C(c5cccc6c5OC(C)(c5ccc(Cl)cc5F)O6)CC3)n4CC3CCO3)cc12 (stereo not drawn) [Compound 295] | 2.19
Cc1n[nH]c2c(C(F)(F)F)cc(NC(=O)c3ccc4c(c3)nc(CN3CCC(c5cccc6c5OC(C)(c5ccc(Cl)cc5F)O6)CC3)n4CC3CCO3)cc12 (stereo not drawn) [Compound 331] | 1.27
Cc1n[nH]c2c(C(F)(F)F)cc(C(=O)Nc3ccc4c(c3)nc(CN3CC=C(c5cccc6c5OC(C)(c5ccc(Cl)cc5F)O6)CC3)n4C[C@@H]3CCO3)cc12 (stereo partly drawn) [Compound 313] | 1.39
Cc1n[nH]c2ccc(C(=O)Nc3ccc4c(c3)nc(Cc3ccc(-c5cccc6c5OC(C)(c5ccc(Cl)cc5F)O6)s3)n4C[C@@H]3CCO3)cc12 (stereo partly drawn) [Compound 322] | 31.9

SMILES | EC50 [nM]
N#Cc1n[nH]c2ccc(NC(=O)c3ccc4c(c3)nc(CN3CCC(c5cccc(OCc6ccc(Cl)cc6F)n5)CC3)n4C[C@@H]3CCO3)cc12 [Compound 82] | 116
Cc1n[nH]c2c(C(F)F)cc(NC(=O)c3ccc4c(c3)nc(CN3CC=C(c5cccc(OCc6ccc(Cl)cc6F)n5)CC3)n4C[C@@H]3CCO3)cc12 [Compound 172] | 1.63
Cc1cc(NC(=O)c2ccc3c(c2)nc(CN2CCC(c4cccc(OCc5ccc(C#N)cc5F)n4)CC2)n3C[C@@H]2CCO2)cc2c1NC(=O)C21CC1 [Compound 124] | 0.17
Cc1n[nH]c2c(C(F)(F)F)cc(C(=O)Nc3ccc4c(c3)nc(CN3CC=C(c5cccc(OCc6ccc(Cl)cn6)n5)CC3)n4C[C@@H]3CCO3)cc12 [Compound 213] | 0.78
Cc1n[nH]c2ncc(NC(=O)c3ccc4c(c3)nc(CN3CC=C(c5cccc(OCc6ccc(Cl)cc6F)n5)CC3)n4C[C@@H]3CCO3)cc12 [Compound 189] | 3.54
Cc1n[nH]c2c(C(F)(F)F)cc(C(=O)Nc3ccc4nc(CN5CC=C(c6cccc(OCc7ccc(Cl)cc7F)n6)CC5)n(CC5CCO5)c4c3)cc12 (stereo not drawn) [Compound 287] | 2.98
N#Cc1ccc(COc2cccc(C3CCN(Cc4nc5cc(C(=O)Nc6cc(F)c7[nH]ncc7c6)ccc5n4C[C@@H]4CCO4)CC3)n2)c(F)c1 [Compound 129] | 1.14
O=C(Nc1ccc2c(c1)nc(CN1CC=C(c3cccc(OCc4ccc(Cl)cc4F)n3)CC1)n2C[C@@H]1CCO1)c1ccc2[nH]nc(C(F)(F)F)c2c1 [Compound 215] | 2.11
Cc1nn(C)c2ccc(NC(=O)c3ccc4c(c3)nc(CN3CCC(c5cccc(OCc6ccc(Cl)cc6F)n5)CC3)n4C[C@@H]3CCO3)cc12 [Compound 109] | 47
COCCn1c(CN2CCC(c3cccc(OCc4ccc(Cl)cc4F)n3)CC2)nc2cc(C(=O)NCc3ccc(C#N)cc3)ccc21 [Compound 30] | 1380
Cc1cc2c(C#N)ccc(COc3cccc(C4=CCN(Cc5nc6cc(NC(=O)c7cc(F)c8[nH]nc(C)c8c7)ccc6n5C[C@@H]5CCO5)CC4)n3)c2o1 [Compound 360] | 0.19
Cc1nc2cccc(COc3cccc(C4=CCN(Cc5nc6cc(C(=O)Nc7ccc8[nH]nc(C)c8c7)ccc6n5C[C@@H]5CCO5)CC4)n3)c2s1 [Compound 369] | 2.91
O=C(NCC(=O)N1CC[C@H](O)C1)c1ccc2c(c1)nc(CN1CCC(c3cccc(OCc4ccc(Cl)cc4F)n3)CC1)n2C[C@@H]1CCO1 [Compound 70] | 1.9
Cc1n[nH]c2c(Cl)cc(C(=O)Nc3ccc4c(c3)nc(CN3CC=C(c5cccc(OCc6ccc(Cl)cc6F)n5)CC3)n4C[C@@H]3CCO3)cc12 [Compound 214] | 1.21
Cc1cc(NC(=O)c2ccc3nc(CN4CC=C(c5cccc(OCc6ccc(Cl)cc6F)n5)CC4)n(CC4CCO4)c3c2)cc2c(F)n[nH]c12 (stereo not drawn) [Compound 265] | 45.9
Cc1n[nH]c2c(F)cc(NC(=O)c3ccc4c(c3)nc(CN3CC=C(c5cccc(OCc6ccc(C#N)cc6F)n5)CC3)n4C[C@@H]3CCO3)cc12 [Compound 177] | 0.23
COCCn1c(Cc2ccc(-c3cccc(OCc4ccc(C#N)cc4F)n3)cc2)nc2cc(NC(=O)CCc3ccccc3O)ccc21 [Compound 13] | 189
Cc1cc2c(C#N)ccc(COc3cccc(C4=CCN(Cc5nc6cc(C(=O)Nc7cc(F)c8[nH]nc(C)c8c7)ccc6n5C[C@@H]5CCO5)CC4)n3)c2o1 [Compound 353] | 0.44
Cc1n[nH]c2ccc(C(=O)Nc3ccc4c(c3)nc(C3CC35CCN(c3cccc(OCc6ccc(Cl)cc6F)n3)CC5)n4CC3CCO3)cc12 (stereo not drawn) [Compound 246] | 0.91
